The values that follow are results of earlier work, collected in PMC11785709, “Angelica gigas Nakai (Korean Dang-gui) Root Alcoholic Extracts in Health Promotion and Disease Therapy – active Phytochemicals and In Vivo Molecular Targets” (Pharmaceutical Research, 2025).

Where two headings read alike, the source gives them in different places.

Common to all, as to settings: cited from earlier work
The test system of series [1] is acetic acid-induced writhing. Set-up: method as in PMID 19557373.
In another series the test system is acute pain models. Further details: method as in PMID 12759141.
The test system of another series is carboxyesterase-2 (CES2).

In the case of `CC1(C)Oc2cc3oc(=O)ccc3cc2C[C@@H]1O` [DOH, decursinol], the analgesic effect result in series [1] (oral 50 mg/kg) is “efficacious”; in series [1] (oral 25 or 10 mg/kg), “not at 25 or 10 mg/kg”. In the series on acute pain models (gavaged DOH 5 to 200 mg/kg), the “anti-nociceptive ED50” value is listed as ~ 50 mg/kg. Moreover, the “peak time of anti-nociceptive efficacy” value in the series with acute pain models (post dose) is 30 min.
Take `C/C=C(/C)C(=O)O[C@H]1Cc2cc3ccc(=O)oc3cc2OC1(C)C` [DA, decursinol angelate]: the “CES2 contribution to metabolism to DOH” value in the series on carboxyesterase-2 (CES2) is on record as “not”.
